Source: patent publication US10519211B2, “Compounds as peptidic GLP1/glucagon/GIP receptor agonists” (SANOFI, priority 2016, dated 2019)
Numbered stars: 1 amine (or outer) side, 2 acyl side, 3 side chain; on linkers, the order of the positions; unused ones are H or OH. Square brackets hold non-standard residues; d marks the D form. Side chains are listed from the residue outwards. Peptide text beside a SMILES is read from it. * marks the point of attachment. Adipoyl(4R-palmitoylamino) = CCCCCCCCCCCCCCCC(=O)N[C@H](CCC(=O)*)CC(=O)O; γGlu = O=C(O)[C@H](CCC(=O)[*:2])N[*:1]; Palmitoyl = CCCCCCCCCCCCCCCC(=O)*; AEEA = NCCOCCOCC(=O)O; Aib = CC(C)(N)C(=O)O

Assays:
Format in all cases: physicochemical
[1] = Thioflavin T (ThT) assay for physical stability (fibrillation); conditions: 3 mg/ml, 100 mM acetate pH 4.5 with m-cresol, shaking at 37° C.
Procedure: Investigations were carried out to determine fibrillation tendencies under stress conditions by shaking at 37° C. within Fluoroskan Ascent FL.
For the tests in Fluoroskan Ascent FL, 200 μL sample were placed into a 96 well mictrotiter plate PS, flat bottom, Greiner Fluotrac No. 655076. Plates were sealed with Scotch Tape (Quiagen). Samples were stressed by continuous cycles of 10 s shaking at 960 rpm and 50 s rest period at 37° C. The kinetic was monitored by measuring fluorescence intensity every 20 minutes.
Peptides were diluted in a buffer system to a final concentration of 3 mg/ml. 20 μL of a 10.1 mM ThT solution in H2O were added to 2 mL of peptide solution to receive a final concentration of 100 μM ThT. For each sample eight replicates were tested.
Tht buffer system A) 100 mM Acetate pH 4.5 including m-cresol (100 mM Natriumacetat trihydrat, pH adjustment using 2N CH3COOH, 2.7 mg/mL m-cresol) Tht buffer system B) 100 mM citrate buffer pH 6.0
Lag time in hours in Thioflavin T (ThT) assay of peptide samples was determined in Tht buffer system A as described in Methods.

[2] = Chemical stability assessment (UPLC-UV, relative purity loss); conditions: 1 mg/ml, 25 mM acetate buffer pH 4.5 with m-cresol (buffer system A)
Procedure: Prior to the chemical stability measurement of a peptide batch, its purity was determined through UPLC/MS. For stability testing the target concentration was 1 mg pure compound/ml. Therefore solutions from solid samples were prepared in a buffer system with a concentration of 1 mg/mL compound based on the previously determined % purity:
Chemical stability buffer system A) 25 mM acetate buffer pH4.5, 3 mg/mL L-Methionine, 2.7 mg/mL m-cresol, 18 mg/mL Glycerol 85%
Peptide solutions were filtered through […] pore size and filled into aliquots under aseptic conditions. At starting point UPLC-UV was performed by injection of 2 μl of the undiluted sample.
For chemical stability testing, aliquots were stored for 28 days at Sand 40° C. After this time course the samples were centrifuged for 15 min at 2500 RCF. Then 2 μl of the undiluted supernatant were analysed with UPLC-UV.
The chemical stability was rated through the relative loss of purity calculated by the equation: [(purity at starting point)−(purity after 28 days at X° C.)]/(purity at starting point)]*100%
The purity is calculated as [(peak area peptide)/(total peak area)]*100%
Peptide samples were prepared in Chemical stability buffer system A and chemical stability was assessed as described in Methods.

[3] = Solubility assessment (UPLC-UV); conditions: acetate buffer pH 4.5, 2.7 mg/ml m-cresol (buffer system A), target 10 mg/ml
Procedure: Prior to the solubility measurement of a peptide batch, its purity was determined through UPLC/MS.
Therefore solutions from solid samples were prepared in a buffer systems with a concentration of 10 mg/mL compound based on the previously determined % purity:
Solubility buffer system A) Acetate Buffer pH 4.5, 100 mM sodium acetate trihydrate, 2.7 mg/ml m-Cresol
UPLC-UV was performed after 1 hour of gentle agitation from the supernatant, which was obtained after 15 min of centrifugation at 2500 RCF (relative centrifugal acceleration).
The solubility was determined by the comparison of the UV peak area of 2 μL-injection of a buffered sample diluted 1:10 with a standard curve of a reference peptide with known concentration. The different UV extinction coefficients of sample and reference peptide were calculated based on the different amino acid sequences and considered in the concentration calculation.
Peptide samples were prepared in solubility buffer system A and solubility was assessed as described in Methods.

| Lag time before increase [1] [h] | Chemical stability [relative purity loss 28 days 40° C.] (%) at pH 4.5 [2] [%] | solubility at 1 h [3] [µg/mL] | Structure (SMILES) |
| --- | --- | --- | --- |
| >45 |  |  | CCCCCCCCCCCCCCCC(=O)NCCOCCOCC(=O)N[C@@H](CCC(=O)N[C@@H](CCC(=O)NCCCC[C@H](NC(=O)[C@H](CC(C)C)NC(=O)[C@H](CCCCN)NC(=O)[C@H](CO)NC(=O)[C@H](CC(C)C)NC(=O)[C@H](CC(=O)O)NC(=O)[C@H](CO)NC(=O)[C@@H](NC(=O)[C@H](Cc1ccccc1)NC(=O)[C@@H](NC(=O)CNC(=O)[C@H](CCC(N)=O)NC(=O)C(C)(C)NC(=O)[C@@H](N)Cc1c[nH]cn1)[C@@H](C)O)[C@@H](C)O)C(=O)N[C@@H](CCC(=O)O)C(=O)N[C@@H](CCCCN)C(=O)N[C@@H](CCC(N)=O)C(=O)N[C@@H](CCCNC(=N)N)C(=O)N[C@@H](CCC(N)=O)C(=O)NC(C)(C)C(=O)N[C@@H](CCC(=O)O)C(=O)N[C@@H](Cc1ccccc1)C(=O)N[C@H](C(=O)N[C@@H](CCC(=O)O)C(=O)N[C@@H](Cc1c[nH]c2ccccc12)C(=O)N[C@@H](CC(C)C)C(=O)N[C@@H](CCCCN)C(=O)N[C@@H](C)C(=O)NCC(=O)NCC(=O)N[C@@H](Cc1c[nH]cn1)C(=O)N1CCC[C@H]1C(=O)N[C@@H](CO)C(=O)NC(C)(C)C(=O)N[C@@H](CCCCN)C(=O)N1CCC[C@H]1C(=O)N1CCC[C@H]1C(=O)N1CCC[C@H]1C(=O)N[C@@H](CCCCN)C(N)=O)[C@@H](C)CC)C(=O)O)C(=O)O [SEQ ID NO: 16, H-Aib-Q-G-T-F-T-S-D-L-S-K-L-K[gGlu-gGlu-AEEA-Palm]-E-K-Q-R-Q-Aib-E-F-I-E-W-L-K-A-G-G-H-P-S-Aib-K-P-P-P-K-NH2] (H-H[Aib]QGTFTSDLSKLK([γGlu-γGlu-AEEA-Palmitoyl])EKQRQ[Aib]EFIEWLKAGGHPS[Aib]KPPPK-NH2) |
| >45 |  |  | CCCCCCCCCCCCCCCC(=O)N[C@H](CCC(=O)NCCOCCOCC(=O)N[C@@H](CCC(=O)NCCCC[C@H](NC(=O)[C@H](CC(C)C)NC(=O)[C@H](CCCCN)NC(=O)[C@H](CO)NC(=O)[C@H](CC(C)C)NC(=O)[C@H](CC(=O)O)NC(=O)[C@H](CO)NC(=O)[C@@H](NC(=O)[C@H](Cc1ccccc1)NC(=O)[C@@H](NC(=O)CNC(=O)[C@H](CCC(N)=O)NC(=O)C(C)(C)NC(=O)[C@@H](N)Cc1c[nH]cn1)[C@@H](C)O)[C@@H](C)O)C(=O)N[C@@H](CCC(=O)O)C(=O)N[C@@H](CCCCN)C(=O)N[C@@H](CCC(N)=O)C(=O)N[C@@H](CCCNC(=N)N)C(=O)N[C@@H](CCC(N)=O)C(=O)NC(C)(C)C(=O)N[C@@H](CCC(=O)O)C(=O)N[C@@H](Cc1ccccc1)C(=O)N[C@H](C(=O)N[C@@H](CCC(=O)O)C(=O)N[C@@H](Cc1c[nH]c2ccccc12)C(=O)N[C@@H](CC(C)C)C(=O)N[C@@H](CCCCN)C(=O)N[C@@H](C)C(=O)N[C@H](C)C(=O)NCC(=O)N[C@@H](Cc1c[nH]cn1)C(=O)N1CCC[C@H]1C(=O)N[C@@H](CO)C(=O)NC(C)(C)C(=O)N[C@@H](CCCCN)C(=O)N1CCC[C@H]1C(=O)N1CCC[C@H]1C(=O)N1CCC[C@H]1C(=O)N[C@@H](CCCCN)C(N)=O)[C@@H](C)CC)C(=O)O)CC(=O)O [SEQ ID NO: 21, H-Aib-Q-G-T-F-T-S-D-L-S-K-L-K[gGlu-AEEA-gAAA-Palm]-E-K-Q-R-Q-Aib-E-F-I-E-W-L-K-A-dAla-G-H-P-S-Aib-K-P-P-P-K-NH2] (H-H[Aib]QGTFTSDLSKLK([γGlu-AEEA-Adipoyl(4R-palmitoylamino)])EKQRQ[Aib]EFIEWLKA[dA]GHPS[Aib]KPPPK-NH2) |
| >45 | 7.2 | > 9900 | CCCCCCCCCCCCCCCC(=O)N[C@@H](CCC(=O)N[C@@H](CCC(=O)NCCCC[C@H](NC(=O)[C@H](CC(C)C)NC(=O)[C@H](CCCCN)NC(=O)[C@H](CO)NC(=O)[C@H](CC(C)C)NC(=O)[C@H](CC(=O)O)NC(=O)[C@H](CO)NC(=O)[C@@H](NC(=O)[C@H](Cc1ccccc1)NC(=O)[C@@H](NC(=O)CNC(=O)[C@H](CCC(N)=O)NC(=O)C(C)(C)NC(=O)[C@@H](N)Cc1c[nH]cn1)[C@@H](C)O)[C@@H](C)O)C(=O)N[C@@H](CCC(=O)O)C(=O)N[C@@H](CCC(=O)O)C(=O)N[C@@H](CCC(N)=O)C(=O)N[C@@H](CCCNC(=N)N)C(=O)N[C@@H](CCC(N)=O)C(=O)NC(C)(C)C(=O)N[C@@H](CCC(=O)O)C(=O)N[C@@H](Cc1ccccc1)C(=O)N[C@H](C(=O)N[C@@H](CCC(=O)O)C(=O)N[C@@H](Cc1c[nH]c2ccccc12)C(=O)N[C@@H](CC(C)C)C(=O)N[C@@H](CCCCN)C(=O)N[C@@H](C)C(=O)N[C@H](C)C(=O)NCC(=O)N[C@@H](Cc1c[nH]cn1)C(=O)N1CCC[C@H]1C(=O)N[C@@H](CO)C(=O)NC(C)(C)C(=O)N[C@@H](CCCCN)C(=O)N1CCC[C@H]1C(=O)N1CCC[C@H]1C(=O)N1CCC[C@H]1C(=O)N[C@@H](CCCCN)C(N)=O)[C@@H](C)CC)C(=O)O)C(=O)O [SEQ ID NO: 11, H-Aib-Q-G-T-F-T-S-D-L-S-K-L-K[gGlu-gGlu-Palm]-E-E-Q-R-Q-Aib-E-F-I-E-W-L-K-A-dAla-G-H-P-S-Aib-K-P-P-P-K-NH2] (H-H[Aib]QGTFTSDLSKLK([γGlu-γGlu-Palmitoyl])EEQRQ[Aib]EFIEWLKA[dA]GHPS[Aib]KPPPK-NH2) |
| >45 |  |  | CCCCCCCCCCCCCCCC(=O)N[C@H](CCC(=O)NCCOCCOCC(=O)N[C@@H](CCC(=O)NCCCC[C@H](NC(=O)[C@H](CC(C)C)NC(=O)[C@H](CCCCN)NC(=O)[C@H](CO)NC(=O)[C@H](CC(C)C)NC(=O)[C@H](CC(=O)O)NC(=O)[C@H](CO)NC(=O)[C@@H](NC(=O)[C@H](Cc1ccccc1)NC(=O)[C@@H](NC(=O)CNC(=O)[C@H](CCC(N)=O)NC(=O)C(C)(C)NC(=O)[C@@H](N)Cc1c[nH]cn1)[C@@H](C)O)[C@@H](C)O)C(=O)N[C@@H](CCC(=O)O)C(=O)N[C@@H](CCC(=O)O)C(=O)N[C@@H](CCC(N)=O)C(=O)N[C@@H](CCCNC(=N)N)C(=O)N[C@@H](CCC(N)=O)C(=O)NC(C)(C)C(=O)N[C@@H](CCC(=O)O)C(=O)N[C@@H](Cc1ccccc1)C(=O)N[C@H](C(=O)N[C@@H](CCC(=O)O)C(=O)N[C@@H](Cc1c[nH]c2ccccc12)C(=O)N[C@@H](CC(C)C)C(=O)N[C@@H](CCCCN)C(=O)N[C@@H](C)C(=O)NCC(=O)NCC(=O)N[C@@H](Cc1c[nH]cn1)C(=O)N1CCC[C@H]1C(=O)N[C@@H](CO)C(=O)NC(C)(C)C(=O)N[C@@H](CCCCN)C(=O)N1CCC[C@H]1C(=O)N1CCC[C@H]1C(=O)N1CCC[C@H]1C(=O)N[C@@H](CCCCN)C(N)=O)[C@@H](C)CC)C(=O)O)CC(=O)O [SEQ ID NO: 22, H-Aib-Q-G-T-F-T-S-D-L-S-K-L-K[gGlu-AEEA-gAAA-Palm]-E-E-Q-R-Q-Aib-E-F-I-E-W-L-K-A-G-G-H-P-S-Aib-K-P-P-P-K-NH2] (H-H[Aib]QGTFTSDLSKLK([γGlu-AEEA-Adipoyl(4R-palmitoylamino)])EEQRQ[Aib]EFIEWLKAGGHPS[Aib]KPPPK-NH2) |
